Measurements as given in patent US20090054392A1, “NAPHTHYLPYRIMIDINE, NAPHTHYLPYRAZINE AND NAPHTHYLPYRIDAZINE ANALOGS AND THEIR USE AS AGONISTS OF THE WNT-BETA-CATENIN CELLULAR MESSAGING SYSTEM” (Wyeth, priority 2007, published 2009).

Tested on: Dkk1-LRP5-TCF-Luciferase
Test: Functional Dkk1-LRP5-TCF-Luciferase Assay in U2OS Cells
Conditions: for EC50 / fold induction at 20 µM / fold induction at 2 µM: Homo sapiens, U2OS; for fold induction at 20 µM: read-out: C = TCF ACTIVITY/DMSO CONTROL Fold induction @ 20.0 uM, 20.0 uM compound; for A = MAX FOLD Induction/DMSO CONTROL: maximum fold induction over DMSO control; for fold induction at 2 µM: read-out: B = TCF ACTIVITY/DMSO CONTROL Fold induction @ 2.0 uM, 2.0 uM compound
Experimental: Biological Evaluation—Functional Dkk1-LRP5-TCF-Luciferase Assay in U2OS Cells
Frozen U2OS-Dkk1-HTS Reporter cells generation: U2OS Human Bone derived cells (Osteosarcoma) are grown in McCoy's 5A Medium (Modified), with L -glutamine (GIBCO Cat No. 16600-082)+1% Pen-Strep+5% FBS) plated at 1×10^7 cells/T175 cm flask. The next day, the cells are co-transfected overnight with the following plasmids: (a) Test reporter (16×TCF-TK-FireFly-Luci), (b) Internal Control Reporter (TK-Renilla-Luci), (c) Wnt3a and (d) Dkk1. GIBCO's Lipofectamine 2000 and OptiMEM are used for the transfection. After a minimum of 4 hr of transfection at 37° C., the plasmid-transfected cells are trypsinized, counted, and suspended in freezing medium (95% FBS+5% DMSO). The reporter cells are frozen at 1×10^7/ml concentrations, aliquoted into 0.5 ml or 2.5 ml/tube and stored at 70° C.
The following day, test compounds are added under HTS setup by Plate Track into 384 well plates (white, TC treated, Falcon plate) such that the final concentration of the compounds in 20 μL/well cell will be 5 μg/ml (final concentration of DMSO=0.25% and final compound concentration=20 μM). Vials of frozen reporter cells are thawed by warming the vial in a 37° C. water bath for 60-120 seconds with some shaking until the cells formed a suspension. The thawed cells are transferred into a cold 50 ml (or larger) tube and mixed well by gentle pipetting. The appropriate amount of cold Phenol Red Free RPMI medium-1640 (GIBCO, Cat #11835-030) with L-glutamine is added, both with ˜5% FBS (GIBCO-BRL, Cat. #16000-044), so that 20 μl of the final cell suspension will contain ˜5,000 cells. The cell dilution is done such that the final concentration of FBS is ˜5%.
Diluted cells (20 μl) are added into each well in a 384 well plate. The plate is incubated at 37° C. under 5% CO2 for ˜20 h. Bright-Glo substrate, 2.5 μl/well is added, and the Fire Fly Luciferase is measured using VLUX (60 second exposure) immediately after the substrate is added. Test compounds are dissolved in DMSO (100%) and added to specified wells. Raw luciferase signal data obtained as relative luminescence units (RLUs) for the test compounds are normalized to the signal of the mean of the sample reporter cell plate with DMSO.

| EC50 [µM] | A = MAX FOLD Induction/DMSO CONTROL [fold] | SMILES | fold induction at 20 µM | fold induction at 2 µM |
| --- | --- | --- | --- | --- |
| 30 | 3.070 | CCN(CC)C(=O)N1CCCN(c2nccc(-c3ccc4ccccc4c3)n2)CC1 [N,N-diethyl-4-[4-(2-naphthyl)pyrimidin-2-yl]-1,4-diazepane-1-carboxamide] | 1.49 | – |
| – | – | CCN(CC)C(=O)N1CCC(Nc2nccc(-c3ccc4ccccc4c3)n2)CC1 [N,N-diethyl-4-{[4-(2-naphthyl)pyrimidin-2-yl]amino}piperidine-1-carboxamide] | – | 1.65 |
| – | – | CCN(CC)C(=O)N1CCC(N(C)c2nccc(-c3ccc4ccccc4c3)n2)CC1 [N,N-diethyl-4-{methyl[4-(2-naphthyl)pyrimidin-2-yl]amino}piperidine-1-carboxamide] | 1.32 | 0.86 |
| – | – | CCN(CC)C(=O)NCCC1CCN(c2nccc(-c3ccc4ccccc4c3)n2)CC1 [N,N-diethyl-N′-(2-{1-[4-(2-naphthyl)pyrimidin-2-yl]piperidin-4-yl}ethyl)urea] | 0.33 | 1.13 |
| – | 1.270 | CCN(CC)C(=O)N[C@@H]1CCN(c2nccc(-c3ccc4ccccc4c3)n2)C1 [N,N-diethyl-N′-{(3R)-1-[4-(2-naphthyl)pyrimidin-2-yl]pyrrolidin-3-yl}urea] | 1.8 | 1.22 |
| – | – | CCN(CC)C(=O)N[C@H]1CCN(c2nccc(-c3ccc4ccccc4c3)n2)C1 [N,N-diethyl-N′-{(3S)-1-[4-(2-naphthyl)pyrimidin-2-yl]pyrrolidin-3-yl}urea] | – | 1.83 |
| – | – | CN(C)C(=O)[C@H]1CCCN1c1nccc(-c2ccc3ccccc3c2)n1 [N,N-dimethyl-1-[4-(2-naphthyl)pyrimidin-2-yl]-D-prolinamide] | 1.2 | 1.02 |
| – | – | CN(C)C(=O)[C@@H]1CCCN1c1nccc(-c2ccc3ccccc3c2)n1 [N,N-dimethyl-1-[4-(2-naphthyl)pyrimidin-2-yl]-L-prolinamide] | 1.24 | 1 |
| 4.11 | 5.503 | CN(C)C1CCN(c2nccc(-c3ccc4ccccc4c3)n2)C1 (stereo not shown) [N,N-dimethyl-1-[4-(2-naphthyl)pyrimidin-2-yl]pyrrolidin-3-amine] | 1.91 | 2 |
| – | – | CN(C)CC1CCN(c2nccc(-c3ccc4ccccc4c3)n2)CC1 [N,N-dimethyl-1-{1-[4-(2-naphthyl)pyrimidin-2-yl]piperidin-4-yl}methanamine] | – | 1.85 |
| 1.02 | 3.620 | CN(C)C[C@H]1CCN(c2nccc(-c3ccc4ccccc4c3)n2)C1 [N,N-dimethyl-1-{(3R)-1-[4-(2-naphthyl)pyrimidin-2-yl]pyrrolidin-3-yl}methanamine] | 0.01 | 2.83 |
| – | 3.620 | CN(C)C[C@@H]1CCN(c2nccc(-c3ccc4ccccc4c3)n2)C1 [N,N-dimethyl-1-{(3S)-1-[4-(2-naphthyl)pyrimidin-2-yl]pyrrolidin-3-yl}methanamine] | 2.26 | 2.26 |
| – | 2.440 | CN(C)CCN1CCN(c2nccc(-c3ccc4ccccc4c3)n2)CC1 [N,N-dimethyl-2-{4-[4-(2-naphthyl)pyrimidin-2-yl]piperazin-1-yl}ethanamine] | 0.01 | 2.55 |
| – | – | CN(C)S(=O)(=O)N1CC(CNc2nccc(-c3ccc4ccccc4c3)n2)C1 [N,N-dimethyl-3-({[4-(2-naphthyl)pyrimidin-2-yl]amino}methyl)azetidine-1-sulfonamide] | 1.14 | 1.47 |
| – | – | CN(C)CCCN1CCN(c2nccc(-c3ccc4ccccc4c3)n2)CC1 [N,N-dimethyl-3-{4-[4-(2-naphthyl)pyrimidin-2-yl]piperazin-1-yl}propan-1-amine] | – | 1.87 |
